These results are taken from PubChem BioAssay (NCI).

Where “and” joins values, the source holds several entries; their conditions need not be identical. Equal values may be shown once.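 Each compound was tested at five concentrations against cells in 96-well plates for 48 hours. GI50 is the concentration that inhibits growth by half. TGI marks complete inhibition of growth.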

Some test systems named below: HCT-116 colon; K-562 leukemia; NCI-H226 lung; MALME-3M melanoma; HT29 colon; HOP-92 NSCLC; LOX IMVI melanoma; SF-295 CNS; SR leukemia; OVCAR-3 ovarian.
Assay in all cases: DTP human tumour cell line panel, 48 h

Broadly, the GI50 is the concentration that inhibits growth by half. As a reminder, the TGI is the concentration at which net growth stops. Lower therefore signals more potent growth arrest. Turning to `C=C1C(=O)C23CC1CCC2C12CO[C@@]3(O)[C@@H](O)C1C(C)(C)C=CC2=O` (stereo not given in full), the GI50 in the test with HCT-116 colon was 2.9 µM; in the test on MALME-3M melanoma, 6.11 µM; with HT29 colon it was 2.12 µM; with HOP-92 NSCLC, 2.92 µM; in the test on SF-295 CNS it was 18.1 µM; in the test on SR leukemia, 0.721 µM. Besides, the TGI in the test on HCT-116 colon was 1.01 µM and 9.03 µM; in the test on K-562 leukemia, more than 100 µM; in the test with NCI-H226 lung it was 12.5 µM; in the test on HT29 colon, 0.756 µM and 5.49 µM; with HOP-92 NSCLC it was 1.46 µM and 5.41 µM; in the test with LOX IMVI melanoma, 11.5 µM. For the same compound, the TGI with SF-295 CNS is 4.79 µM and 32 µM; in the test on SR leukemia, 43.6 µM and 16.1 µM; in the test on OVCAR-3 ovarian, 2.75 µM.
As to `O=c1ncccn1C1OC(CO)C(O)C1F` (stereo not given), the GI50 in the test with HCT-116 colon and in the test with K-562 leukemia was more than 100 µM in each case. Also, the total growth inhibition concentration (TGI) in the test on HCT-116 colon, in the test on K-562 leukemia, in the test with NCI-H226 lung, in the test with MALME-3M melanoma, with HT29 colon and with HOP-92 NSCLC was more than 100 µM in each case. The total growth inhibition concentration (TGI) in the test on LOX IMVI melanoma, in the test with SF-295 CNS, in the test on SR leukemia and in the test with OVCAR-3 ovarian was more than 100 µM each time.
In the case of `CCCC(=O)Nc1cn(COC)c(C(=O)N2C[C@H]3C[C@@]34C2=CC(=O)c2[nH]cc(C)c24)n1`, the GI50 is 2.32 µM in the test with HCT-116 colon; 7.41 µM with K-562 leukemia; 4.22 µM with MALME-3M melanoma; 12.4 µM with HT29 colon; 5.12 µM in the test with HOP-92 NSCLC; 3.13 µM in the test with LOX IMVI melanoma. In addition, the GI50 in the test on SF-295 CNS is 5 µM; in the test on OVCAR-3 ovarian, 4.93 µM. Further, the TGI in the test with HCT-116 colon is 50 µM and 12 µM; with K-562 leukemia, 50 µM and > 100 µM; in the test with NCI-H226 lung it was 39.4 µM; with MALME-3M melanoma it was 9.45 µM and 26 µM; in the test with HT29 colon it was 25.2 µM and > 100 µM; in the test on HOP-92 NSCLC, 26.8 µM and 31.4 µM. Besides, the TGI in the test on LOX IMVI melanoma was 35.4 µM and > 100 µM; with SF-295 CNS it was 50 µM and 67.2 µM; in the test with SR leukemia, more than 100 µM; in the test with OVCAR-3 ovarian it was 24.5 µM and 72 µM.
Take `COc1ccc(-c2nn(-c3cccc(Cl)c3)cc2-c2cc(-c3cccs3)no2)cc1`: the GI50 in the test on HCT-116 colon was 3.03 µM; in the test with K-562 leukemia, 3.43 µM; with NCI-H226 lung, 4.11 µM; in the test on MALME-3M melanoma, 2.6 µM; in the test on HT29 colon, 3.85 µM; in the test with HOP-92 NSCLC it was 1.61 µM. For the same compound, the GI50 was 3.04 µM in the test with LOX IMVI melanoma, 2.7 µM with SF-295 CNS, 3.03 µM with SR leukemia and 5.07 µM in the test on OVCAR-3 ovarian. The TGI in the test on HCT-116 colon is 12.7 µM; in the test with K-562 leukemia it was more than 100 µM; in the test with NCI-H226 lung, 30.3 µM; in the test on MALME-3M melanoma it was 10.6 µM; in the test on HT29 colon, 15.1 µM; in the test with HOP-92 NSCLC, 8.13 µM. Further, the concentration for total growth inhibition (TGI) worked out at 10.9 µM in the test with LOX IMVI melanoma, 13.2 µM in the test on SF-295 CNS, 12.1 µM in the test with SR leukemia and 25 µM in the test on OVCAR-3 ovarian.
For the compound `COC(=O)C1=C(C(=O)OC)C(C(=O)OC)C(C(=O)OC)C(C(=O)OC)(C(=O)OC)C(C(=O)OC)=C1C(=O)OC` (stereo not given), the total growth inhibition concentration (TGI) in the test on HCT-116 colon was determined as 19.6 µM; in the test with K-562 leukemia, 22.4 µM; in the test on NCI-H226 lung, 25.1 µM; in the test with MALME-3M melanoma, 15.7 µM; in the test on HT29 colon it was 35.3 µM; in the test on HOP-92 NSCLC it was 18.4 µM. Besides, the concentration for total growth inhibition (TGI) came to 28.2 µM with LOX IMVI melanoma, 39.9 µM in the test on SF-295 CNS, 3.34 µM in the test on SR leukemia and 28.9 µM in the test on OVCAR-3 ovarian.
On to `O=C1Cc2ccccc2CCc2ccccc21`, for which the TGI with HCT-116 colon, with K-562 leukemia, in the test on NCI-H226 lung, with MALME-3M melanoma, in the test with HT29 colon and in the test with HOP-92 NSCLC was more than 100 µM in each case. For the same compound, the total growth inhibition concentration (TGI) in the test with LOX IMVI melanoma, with SF-295 CNS, with SR leukemia and with OVCAR-3 ovarian was more than 100 µM each time.
Consider `Cc1ccc(NCCNCC(O)CO)c2c(=O)c3ccccc3sc12` (stereo not given), for which the GI50 in the test on HCT-116 colon is 1.05 µM; in the test on K-562 leukemia, 1.52 µM; with NCI-H226 lung, 1.65 µM; in the test on MALME-3M melanoma, 1.37 µM; in the test on HT29 colon, 1.41 µM; in the test on HOP-92 NSCLC, 1.98 µM. The GI50 in the test with LOX IMVI melanoma is 1.43 µM; in the test on SF-295 CNS it was 1.52 µM; in the test on SR leukemia it was 1.55 µM; in the test on OVCAR-3 ovarian it was 2.15 µM. The TGI with HCT-116 colon is 2.3 µM; in the test with K-562 leukemia, 3.26 µM; in the test with NCI-H226 lung, 3.44 µM; in the test with MALME-3M melanoma, 2.76 µM; in the test with HT29 colon, 3.04 µM; in the test on HOP-92 NSCLC, 7.81 µM. The TGI came out at 2.84 µM in the test with LOX IMVI melanoma, 3.09 µM with SF-295 CNS, 3.97 µM in the test with SR leukemia and 4.7 µM with OVCAR-3 ovarian.
